Legend:
Test in all cases: In vitro antibacterial evaluation: minimum inhibitory concentration (MIC), broth dilution method
Type in all cases: cell-based
Details in all cases: 18 hours at 35° C.
Streptococcus sp. = test system: Streptococcus sp.
How it was run: (§1)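 NCCLS M7-A2 broth dilution with Mueller-Hinton II, testing 64-0.06 μg/mL antibiotic against 5×10^5 CFU/mL inocula. Test strains include recent methicillin-, penicillin- or vancomycin-resistant clinical isolates. MIC is the lowest concentration preventing growth.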

Escherichia coli = test system: Escherichia coli
How it was run: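 MIC read as lowest drug level preventing visible growth. Organisms at 5×10^5 CFU/mL were exposed to a 64-0.06 μg/mL dilution series in Muller-Hinton II […] following NCCLS broth dilution standard M7-A2.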

Enterococcus sp. = test system: Enterococcus sp.
How it was run: as §1

Staphylococcus sp. = test system: Staphylococcus sp.
How it was run: as §1

Substance: β-O-[(Heptylamino)carbonyl]-cyclo[glycyl-β-methylphenylalanyl-O-(4-O-hexopyranosylhexopyranosyl)tyrosyl-3-(2-iminoimidazolidin-4-yl)seryl-3-(3-hexopyranosyl-2-iminoimidazolidin-4-yl)serylseryl] [Example 253a]
- MIC Streptococcus agalactiae (GC 4564) (Streptococcus sp.; Streptococcus agalactiae (GC 4564)): 1 µg/mL
- MIC Streptococcus pneumoniae (ATCC 6301) (Streptococcus sp.; Streptococcus pneumoniae (ATCC 6301)): 0.5 µg/mL
- MIC Streptococcus pneumoniae (GC 1894) (Streptococcus sp.; Streptococcus pneumoniae (GC 1894)): 0.25 µg/mL
- MIC Streptococcus pneumoniae (GC 4565) (Streptococcus sp.; Streptococcus pneumoniae (GC 4565)): 0.5 µg/mL
- MIC Streptococcus pyogenes (GC 4563) (Streptococcus sp.; Streptococcus pyogenes (GC 4563)): 1 µg/mL
- MIC Streptococcus pneumoniae (ATCC 6301) (Streptococcus sp.; broth dilution, strain ATCC 6301): 0.5 µg/mL
- MIC Streptococcus pneumoniae (GC 1894) (Streptococcus sp.; broth dilution, strain GC 1894): 0.25 µg/mL
- MIC Streptococcus pyogenes (GC 4563) (Streptococcus sp.; broth dilution, strain GC 4563): 1 µg/mL
- MIC Streptococcus agalactiae (GC 4564) (Streptococcus sp.; broth dilution, strain GC 4564): 1 µg/mL
- MIC Streptococcus pneumoniae (GC 4565) (Streptococcus sp.; broth dilution, strain GC 4565): 0.5 µg/mL
- MIC Escherichia coli (ATCC 25922) (Escherichia coli; Escherichia coli (ATCC 25922)): >64 µg/mL
- MIC Escherichia coli (GC 4559) (Escherichia coli; Escherichia coli (GC 4559)): >64 µg/mL
- MIC Escherichia coli (GC 4560) (Escherichia coli; Escherichia coli (GC 4560)): 2 µg/mL
- MIC Enterococcus avium (GC 4558) (Enterococcus sp.; Enterococcus avium (GC 4558)): 16 µg/mL
- MIC Enterococcus faecalis (ATCC 29212) (Enterococcus sp.; Enterococcus faecalis (ATCC 29212)): 16 µg/mL
- MIC Enterococcus faecalis (GC 2242) (Enterococcus sp.; Enterococcus faecalis (GC 2242)): 16 µg/mL
- MIC Enterococcus faecalis (GC 2691) (Enterococcus sp.; Enterococcus faecalis (GC 2691)): 16 µg/mL
- MIC Enterococcus faecalis (GC 3059) (Enterococcus sp.; Enterococcus faecalis (GC 3059)): 32 µg/mL
- MIC Enterococcus faecalis (GC 4552) (Enterococcus sp.; Enterococcus faecalis (GC 4552)): 32 µg/mL
- MIC Enterococcus faecalis (GC 4553) (Enterococcus sp.; Enterococcus faecalis (GC 4553)): 16 µg/mL
- MIC Enterococcus faecalis (GC 4554) (Enterococcus sp.; Enterococcus faecalis (GC 4554)): 32 µg/mL
- MIC Enterococcus faecalis (GC 6189) (Enterococcus sp.; Enterococcus faecalis (GC 6189)): 16 µg/mL
- MIC Enterococcus faecium (GC 2243) (Enterococcus sp.; Enterococcus faecium (GC 2243)): 16 µg/mL
- MIC Enterococcus faecium (GC 4556) (Enterococcus sp.; Enterococcus faecium (GC 4556)): 16 µg/mL
- MIC Enterococcus faecium (GC 4557) (Enterococcus sp.; Enterococcus faecium (GC 4557)): 4 µg/mL
- MIC Enterococcus faecalis (ATCC 29212) (Enterococcus sp.; broth dilution, strain ATCC 29212): 16 µg/mL
- MIC Enterococcus faecalis (GC 2242) (Enterococcus sp.; broth dilution, strain GC 2242): 16 µg/mL
- MIC Enterococcus faecium (GC 2243) (Enterococcus sp.; broth dilution, strain GC 2243): 16 µg/mL
- MIC Enterococcus faecalis (GC 2691) (Enterococcus sp.; broth dilution, strain GC 2691): 16 µg/mL
- MIC Enterococcus faecalis (GC 3059) (Enterococcus sp.; broth dilution, strain GC 3059): 32 µg/mL
- MIC Enterococcus faecalis (GC 4552) (Enterococcus sp.; broth dilution, strain GC 4552): 32 µg/mL
- MIC Enterococcus faecalis (GC 4553) (Enterococcus sp.; broth dilution, strain GC 4553): 16 µg/mL
- MIC Enterococcus faecalis (GC 4554) (Enterococcus sp.; broth dilution, strain GC 4554): 32 µg/mL
- MIC Enterococcus faecium (GC 4556) (Enterococcus sp.; broth dilution, strain GC 4556): 16 µg/mL
- MIC Enterococcus faecium (GC 4557) (Enterococcus sp.; broth dilution, strain GC 4557): 4 µg/mL
- MIC Enterococcus avium (GC 4558) (Enterococcus sp.; broth dilution, strain GC 4558): 16 µg/mL
- MIC Enterococcus faecalis (GC 6189) (Enterococcus sp.; broth dilution, strain GC 6189): 16 µg/mL
- MIC Coagulase Negative Staphylococcus (GC 4547) (Staphylococcus sp.; Coagulase Negative Staphylococcus (GC 4547)): 4 µg/mL
- MIC Coagulase Negative Staphylococcus (GC 4548) (Staphylococcus sp.; Coagulase Negative Staphylococcus (GC 4548)): 4 µg/mL
- MIC Coagulase Negative Staphylococcus (GC 4549) (Staphylococcus sp.; Coagulase Negative Staphylococcus (GC 4549)): 1 µg/mL
- MIC Coagulase Negative Staphylococcus (GC 4551) (Staphylococcus sp.; Coagulase Negative Staphylococcus (GC 4551)): 8 µg/mL
- MIC Coagulase Negative Staphylococcus (GC 6257) (Staphylococcus sp.; Coagulase Negative Staphylococcus (GC 6257)): 1 µg/mL
- MIC Staphylococcus aureus (ATCC 29213) (Staphylococcus sp.; Staphylococcus aureus (ATCC 29213)): 4 µg/mL
- MIC Staphylococcus aureus (GC 1131) (Staphylococcus sp.; Staphylococcus aureus (GC 1131)): 4 µg/mL
- MIC Staphylococcus aureus (GC 3051) (Staphylococcus sp.; Staphylococcus aureus (GC 3051)): 2 µg/mL
- MIC Staphylococcus aureus (GC 3053) (Staphylococcus sp.; Staphylococcus aureus (GC 3053)): 4 µg/mL
- MIC Staphylococcus aureus (GC 4541) (Staphylococcus sp.; Staphylococcus aureus (GC 4541)): 4 µg/mL
- MIC Staphylococcus aureus (GC 4542) (Staphylococcus sp.; Staphylococcus aureus (GC 4542)): 4 µg/mL
- MIC Staphylococcus aureus (GC 4544) (Staphylococcus sp.; Staphylococcus aureus (GC 4544)): 4 µg/mL
- MIC Staphylococcus aureus (GC 4545) (Staphylococcus sp.; Staphylococcus aureus (GC 4545)): 2 µg/mL
- MIC Staphylococcus aureus-SMITH (GC 4543) (Staphylococcus sp.; Staphylococcus aureus-SMITH (GC 4543)): 2 µg/mL
- MIC Staphylococcus haemolyticus (GC 4546) (Staphylococcus sp.; Staphylococcus haemolyticus (GC 4546)): 4 µg/mL
- MIC Staphylococcus aureus (ATCC 29213) (Staphylococcus sp.; broth dilution, strain ATCC 29213): 4 µg/mL
- MIC Staphylococcus aureus (GC 1131) (Staphylococcus sp.; broth dilution, strain GC 1131): 4 µg/mL
- MIC Staphylococcus aureus (GC 3051) (Staphylococcus sp.; broth dilution, strain GC 3051): 2 µg/mL
- MIC Staphylococcus aureus (GC 3053) (Staphylococcus sp.; broth dilution, strain GC 3053): 4 µg/mL
- MIC Staphylococcus aureus (GC 4541) (Staphylococcus sp.; broth dilution, strain GC 4541): 4 µg/mL
- MIC Staphylococcus aureus (GC 4542) (Staphylococcus sp.; broth dilution, strain GC 4542): 4 µg/mL
- MIC Staphylococcus aureus-SMITH (GC 4543) (Staphylococcus sp.; broth dilution, strain GC 4543): 2 µg/mL
- MIC Staphylococcus aureus (GC 4544) (Staphylococcus sp.; broth dilution, strain GC 4544): 4 µg/mL
- MIC Staphylococcus aureus (GC 4545) (Staphylococcus sp.; broth dilution, strain GC 4545): 2 µg/mL
- MIC Staphylococcus haemolyticus (GC 4546) (Staphylococcus sp.; broth dilution, strain GC 4546): 4 µg/mL
- MIC Coagulase Negative Staphylococcus (GC 4547) (Staphylococcus sp.; broth dilution, strain GC 4547): 4 µg/mL
- MIC Coagulase Negative Staphylococcus (GC 4548) (Staphylococcus sp.; broth dilution, strain GC 4548): 4 µg/mL
- MIC Coagulase Negative Staphylococcus (GC 4549) (Staphylococcus sp.; broth dilution, strain GC 4549): 1 µg/mL
- MIC Coagulase Negative Staphylococcus (GC 4551) (Staphylococcus sp.; broth dilution, strain GC 4551): 8 µg/mL
- MIC Coagulase Negative Staphylococcus (GC 6257) (Staphylococcus sp.; broth dilution, strain GC 6257): 1 µg/mL

Reference: US8247211B2, “Glycopeptide antibiotics” (American Cyanamid Company, priority 2001, dated 2012)
